Square brackets hold non-standard residues; d marks the D form. Primed or numbered codes have the meaning given here. Ends that are not written are not given here. CPQ2″ = quencher on the Lys side chain; FAM = fluorescent reporter; PEG2′ = not defined here; CPQ2 = quencher
How the values were obtained:
[1] = system: NASH-related protease activity in K2EDTA plasma (cathepsin L); assay: Inhibitor profiling of Probe #102 cleavage in healthy and NASH plasma; format: biochemical, mice; settings: for effect of inhibitor on Probe #102 signal: NASH and healthy plasma
Description: For this experiment, all plasma samples were prepared individually and diluted 1/10e in PBS with inhibitor added directly to the samples. Inhibitor was prepared at 15× concentration to final. Substrates were diluted in DI water at 18 uM, such that the final concentration on the plate would be 6 uM. All samples were prepared such that their last dilution on the plate would not affect the desired final concentration. 10 ul of each individual sample was pipetted into their corresponding wells, and the plate was then spun down in the centrifuge at 1500 RPM for 30 seconds to coat the bottom of each well with the sample. 5 ul of the 18 uM substrate solution was pipetted into each well being used on a 384 well plate, and then the plate was spun down in the centrifuge at 1500 rpm for 30 seconds. The plate was placed immediately in the plate reader at 37° C. for a 30-minute-long fluorescence kinetic read at 485/535 extended gain.
To assess the proteolytic cleavage pattern of Probe #102, samples were tested using a pool of broad inhibitors for serine, cysteine, threonine, MMP and aspartic protease family members (broad inhibitor) to assess general protease activity, AEBSF for serine proteases, E64 for cysteine proteases, CTSi for broad cathepsin inhibition of cathepsins L, S, K and B, or specific inhibitors for cathepsin K (L00625), for cathepsin L (SID) or cathepsin B (CA074).

[2] = system: carboxylesterase 1, phospholipase A2 and lipoprotein lipase; assay: Spiked recombinant enzymes in human plasma with resorufin oleate as substrate; format: biochemical
[3] = system: proteases in mouse plasma (caspase activity); assay: Ex vivo probe cleavage in plasma of Jo2 fulminant hepatitis mice; format: biochemical; settings: mouse plasma 3 hours after Jo2 injection
Description: Fulminant hepatitis is induced after injection intraperitoneal of monoclonal antibody anti-CD95 (Jo2, BD biosciences, 4 ug/animal), and mouse plasma samples were collected 3 hours after Jo2 injection.

[4] = system: proteases in COVID plasma; assay: Ex vivo probe cleavage in COVID and healthy K2EDTA and Lithium Heparin plasma; format: biochemical
[5] = system: cathepsin and/or MMP protease activities; assay: Ex vivo probe cleavage in plasma of healthy, NASH regression and NASH progression mice; format: biochemical; settings: K2EDTA plasma collected at 20 weeks
Source text: Plasma samples were collected from all animals at 20 weeks.
The probes showing the most differentiation in NASH were linked to cathepsin and/or MMP protease activities.

[6] = system: COVID-related proteases in swab samples; assay: Ex vivo probe cleavage in COVID positive and negative swab samples; format: biochemical
Granzyme B = Granzyme B (Homo sapiens, UniProt P10144); assay: Inhibition experiments on Probe #647 signal in COVID swab samples; settings: healthy and COVID samples
[7] = K2EDTA and Lithium Heparin plasma

Granzyme B, sequence (P10144 21-247): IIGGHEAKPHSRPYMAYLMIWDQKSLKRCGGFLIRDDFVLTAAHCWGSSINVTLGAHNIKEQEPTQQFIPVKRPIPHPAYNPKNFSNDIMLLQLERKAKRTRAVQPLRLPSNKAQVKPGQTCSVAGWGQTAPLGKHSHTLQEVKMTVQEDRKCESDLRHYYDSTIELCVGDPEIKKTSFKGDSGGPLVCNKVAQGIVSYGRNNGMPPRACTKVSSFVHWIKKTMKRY

NCCc1ccc(S(=O)(=O)F)cc1 [AEBSF]
decrease of NASH signal ([1]; Probe #102, 6 uM, NASH plasma): 65% | decrease of healthy signal ([1]; Probe #102, 6 uM, healthy plasma): 60%

CCCNC(=O)[C@H]1O[C@@H]1C(=O)N[C@H](C(=O)N1CCC[C@H]1C(=O)O)[C@@H](C)CC [CA074]
effect of inhibitor on Probe #102 signal [1]: did not significantly decrease signal

CC(C)C[C@H](NC(=O)[C@H]1O[C@@H]1C(=O)O)C(=O)NCCCCN=C(N)N [Probe E64]
effect of inhibitor on Probe #102 signal [1]: decreased NASH signal significantly

CN1CCN(c2nc(-c3ccc(C(=O)NC4(C(=O)NCC#N)CCCCC4)cc3)cs2)CC1 [Probe L006235]
effect of inhibitor on Probe #102 signal [1]: did not significantly decrease signal

CCCC(=O)O [butyrate]
suitability as substrate for enzyme detection [2]: promising for detection of broad range of enzymes

Probe #8: Caspase centric probe (chain 1 GVDVADGK; chain 2 KKGC; not fully specified; 5-FAM, CPQ2 quencher, PEG2; Description of Artificial Sequence: Synthetic probe; SITE 8 Lysine modified with a CPQ2 quencher; SITE 1 D-Lysine; SITE 2 D-Lysine)
differentiation between healthy and Jo2 samples [3]: show contrast that is specific and sensitive to the Jo2 model

Probe #12: Caspase centric probe (chain 1 GDEVDGK; chain 2 KKGC; not fully specified; 5-FAM, CPQ2 quencher, PEG2; Description of Artificial Sequence: Synthetic probe; SITE 7 Lysine modified with a CPQ2 quencher; SITE 1 D-Lysine; SITE 2 D-Lysine)
differentiation between healthy and Jo2 samples [3]: show contrast that is specific and sensitive to the Jo2 model

Probe #18: Neutrophil elastase substrate (GAAPVGK(CPQ2); not fully specified (N-terminus, C-terminus); also: 5-FAM, PEG2-kk-GC)
differential cleavage between COVID and healthy samples [4, 7]: demonstrated contrast in both sets

Probe #84: Furin substrate (GRVKRGLAGK(CPQ2); not fully specified (N-terminus, C-terminus); also: 5-FAM, PEG2-kk-GC)
differential cleavage between COVID and healthy samples [4, 7]: demonstrated contrast in both sets

Probe #102: a CTSL sensing probe; fluorescent reporter and quencher peptide probe (chain 1 {FAM}-GKPILFFRLKGK(CPQ2″)[PEG2′]; chain 2 [dK][dK]GC; not fully specified; printed as (FAM)-GKPILFFRLKG-K(CPQ2)-PEG2-kk-GC; also: FAM, place not given here)
differentiation among healthy, regression and NASH samples [5]: can differentiate | protease that the probe responds to ([1]; individual cathepsin inhibitors, FIG. 30D-F): specifically responds to the activity of cathepsin L (CTSL)

Probe #409: SARS CoV2 coronavirus substrate (SARS-COV2 3C protease) (GTSAVLQSGFRKGK(CPQ2); not fully specified (N-terminus, C-terminus); also: 5-FAM, PEG2-kk-GC)
differential cleavage between COVID and healthy samples ([4]; K2 EDTA samples): modest contrast

Probe #428: probe used in NASH regression experiment (chain 1 {FAM}-GDRRKKLTQGK(CPQ2″)[PEG2′]; chain 2 [dK][dK]GC; not fully specified; printed as (FAM)-GDRRKKLTQG-K(CPQ2)-(PEG2)-; also: FAM, place not given here)
differentiation among healthy, regression and NASH samples [5]: can differentiate

Probe #462: MMP8 substrate (GKKAKRNALGK(CPQ2); not fully specified (N-terminus, C-terminus); also: FAM, PEG2-DLys-DLys-GC)
differential cleavage between COVID and healthy samples [4, 7]: demonstrated contrast in both sets

Probe #492: ex vivo fluorescent probe used in NASH mouse plasma (chain 1 {FAM}-GQRANSIRVTWGK(CPQ2″)[PEG2′]; chain 2 [dK][dK]GC; not fully specified; printed as (FAM)-GQRANSIRVTWG-K(CPQ2)-(PEG2)-; also: FAM, place not given here)
differentiation among healthy, regression and NASH samples [5]: can differentiate

Probe #647: Caspase centric probe; signal measures Granzyme B activity (chain 1 GAIEPDSGGK(CPQ2); chain 2 [dK][dK]GC-NH2; not fully specified (N-terminus, C-terminus); also: 5FAM, PEG2, linkage of the two chains not given here)
differentiation among healthy, regression and NASH samples [5]: can differentiate | differentiation between healthy and Jo2 samples [3]: show contrast that is specific and sensitive to the Jo2 model | number of active samples ([6]; COVID+ swab samples): 7 | number of active samples ([6]; COVID- swab samples): 1 | difference between COVID+ and COVID- samples ([6]; swabs in saline, p=0.029): significant differences | protease measured by the probe signal (Granzyme B): measures the activity of protease Granzyme B

Resorufin oleate
suitability as substrate for enzyme detection [2]: promising for detection of broad range of enzymes
